≈ marks a conversion by molar mass, not a printed value. Marks after values point to notes of the source that are not given here.
Key:
[1] = system: N27 rat dopaminergic cells overexpressing a truncated human αSynuclein-GFP fusion protein; assay: Inhibition of RSL3-induced αSynuclein aggregation in N27 cells; assay type: cell-based; settings: 60 nM RSL3, 70 nM compound, 24 hr, vs RSL3 only (Dunnett's test)
Method: N27 rat dopaminergic cells (purchased from EMD Millipore, SCC048) were transformed to stably overexpress truncated α-Synuclein fused with green fluorescent protein (GFP) with a plasmid construct obtained from Origene (RG221446). Cells were maintained in selection media which consisted of RPMI 1640 media supplemented with 10% (v/v) fetal bovine serum (Millipore, ES-009-B), 1% (v/v) Pencillin-Streptomycin (Gibco, 15140-122), 1% (v/v) L-Glutamine (Gibco, 25030-081) and 500 μg/mL of G418 (Gibco, 10131-027).
N27 rat dopaminergic cells overexpressing a truncated (112 amino acid) human αSynuclein-GFP fusion protein, as described above, were maintained in normal culture conditions as described above. The day before the experiment, cells were plated in 96 well optical bottom, black walled plates at 3,000 cells/well, and maintained at 37° C. for 24 hr. The experiment was initiated by co-treating cells with (1S,3R)-methyl 2-(2-chloroacetyl)-1-(4-(methoxycarbonyl)phenyl)-2,3,4,9-tetrahydro-1H-pyrido[3,4-b]indole-3-carboxylate (1S,3R-RSL3, described by Yang et al., Cell 156:317-331 (2014)) (60 nM) and 70 nM compounds (2,3,5-trimethyl-6-nonylcyclohexa-2,5-diene-1,4-dione (C9), 2,3,5-trimethyl-6-octylcyclohexa-2,5-diene-1,4-dione (C8), or 2,3,5-trimethyl-6-heptylcyclohexa-2,5-diene-1,4-dione (C7)) using a D300e compound printer (Tecan), and placed back in the incubator at 37° C. for 24 hr. Cells were fixed with 4% paraformaldehyde for 15 minutes at room temperature, washed 3 times with Dulbecco's phosphate-buffered saline (DPBS) buffer, and then incubated at room temperature for 48 hr with 1% Triton-X 100 solution (in DPBS) to enable selective labeling of aggregated αSynuclein. Cells were then washed and standard immunocytochemistry (ICC) methods were employed to label total αSynuclein (mouse anti-αSynuclein, 1:250, BD Biosciences). Cells were incubated with primary antibody overnight at 4° C. and then washed with DPBS 3 times the following day. Cells were then incubated at room temperature with a fluorescently conjugated secondary antibody (goat anti-mouse Alexa 647, Invitrogen) for 2 hr at room temperature. 10 nM Hoechst was also added to label nuclei, and cells were imaged on a high-content imaging platform (ThermoFisher, HSC Cellomics Arrayscan) to quantify total aggregated αSynuclein (see FIG. 3A).
Statistical analysis of samples was performed via ordinary one-way ANOVA analysis with Dunnett's multiple comparisons test, comparing RSL3 only-treated vs. RSL3 plus compound-treated cells.

[2] = target: T1, recombinant human αSynuclein (Homo sapiens, UniProt P37840); assay: Cell-free αSynuclein aggregation assay (Thioflavin T); assay type: biochemical; settings: 200 μM αSynuclein, 100 μM compound, t=24 hours, one-way ANOVA with Tukey's test
T1 construct: purchased Proteos, Inc
Method: Summary: The compound 2,3,5-trimethyl-6-nonylcyclohexa-2,5-diene-1,4-dione (“C9”), and its C8 (2,3,5-trimethyl-6-octylcyclohexa-2,5-diene-1,4-dione) and C7 (2,3,5-trimethyl-6-heptylcyclohexa-2,5-diene-1,4-dione) analogs were tested for their function as inhibitors of αSynuclein aggregation, as measured by the presence and extent of a lag phase in the kinetics of protein aggregation. Changes in the fluorescence intensity by the aggregate-binding fluorophore, Thioflavin T, were followed to report on the protein aggregation as a function of time.
Experimental Methods: Cell-free αSynuclein aggregation assays were set up with 200 μM of recombinant human αSynuclein (Proteos, Inc.) in the presence of 100 μM of compound (from 10 mM stock solutions in DMSO) or in 1% (v/v) DMSO as vehicle. All solutions were prepared in Dulbecco's phosphate-buffered saline (DPBS) buffer (pH 7.4) with 0.03% (v/v) NaN3 and 5 μM Thioflavin T (ThT), prepared as a master mix before addition of the protein or compounds. A protein master mix was then prepared and separated into 4 tubes (1 per condition). […]
Protein solution+/−compound and background samples were then loaded into wells of an optically transparent 96-well plate with black walls (Corning Costar), which was sealed with a LightCycler® 480 seal (Roche Life Science), incubated at 37° C. for 15 minutes to equilibrate, after which the data collection was started. A Tecan M1000 spectrometer was used to collect data points on ThT fluorescence (ex/em 450/490 nm) every 30 minutes. The plate was agitated by shaking in between fluorescence reads.
Data Analysis and Results: Fluorescence intensity data were collected on all the samples over time. The endpoint fluorescence intensity unit (FIU) value of the mean of vehicle-treated αSyn samples was set to 100%, and all other FIU values were normalized relative to it (see FIG. 1A). The end results were plotted as normalized ThT fluorescence (%) with respect to time.
Normalized ThT fluorescence values (% FIU) at t=24 hours were used to compare samples (see FIG. 1B). […]

[3] = target: T2, pre-formed fibrils (PFFs) of human wild-type Tau K18 fragment (Homo sapiens, UniProt P10636); assay: Cell-free Tau K18 WT pre-formed fibril disaggregation assay (Thioflavin T); assay type: biochemical; settings: 10 μM Tau PFFs, 30 μM compound, 94 hr, vs vehicle (Dunnett's test)
T2 construct: human recombinant Tau K18 WT fragment were generated by incubating the Tau K18 monomer (Bio-Techne®); purchased Bio-Techne
Method: Summary: Compounds 2,3,5-trimethyl-6-nonylcyclohexa-2,5-diene-1,4-dione (C9), 2,3,5-trimethyl-6-octylcyclohexa-2,5-diene-1,4-dione (C8), and 2,3,5-trimethyl-6-heptylcyclohexa-2,5-diene-1,4-dione (C7) were tested for their ability to disaggregate pre-formed fibrils (PFFs) of human wild-type Tau K18 fragment, as measured by the decrease in fluorescence intensity of the aggregate-binding fluorophore, Thioflavin T, over time.
Experimental Methods: Pre-formed fibrils (PFFs) of the human recombinant Tau K18 WT fragment were generated by incubating the Tau K18 monomer (Bio-Techne®) with sodium heparin in a 1:1 ratio in presence of excess (50×) tris(2-carboxyethyl)phosphine (TCEP) as the reducing agent in Dulbecco's phosphate-buffered saline (DPBS) buffer (pH 7.4). The mixture was incubated for 4 days at 37° C. without agitation to yield PFFs in 100 μM final concentration.
Cell-free Tau disaggregation assays were set up with 10 μM of Tau PFFs in the presence of 30 μM of compound (from 10 mM stocks in DMSO) or in 0.3% (v/v) DMSO as vehicle. All solutions were prepared in DPBS buffer (pH 7.4) with 0.03% (v/v) NaN3 and 5 μM Thioflavin T (ThT), prepared as a master mix before addition of the protein or compounds. A protein master mix was first prepared the day before the assay to pre-equilibrate the Tau PFFs at 10 μM at ambient temperature and atmosphere. The next day, the pre-mixed protein solution was separated into 4 tubes (1 per condition). […]
Tau PFFs solution+/−compound and background samples were then loaded into wells of an optically transparent 96-well plate with black walls, which was sealed with a LightCycler® 480 seal (Roche Life Science), incubated at 37° C. for 15 minutes to equilibrate and the data collection was initiated. A Tecan M1000 spectrometer was used to collect data points on ThT fluorescence (ex/em 450/490 nm) every 30 minutes without agitation.
Data Analysis and Results: The maximum fluorescence intensity unit (FIU) value of the vehicle-treated Tau samples was set to 100%, to which all other FIU values were normalized relatively. […]

[4] = Solubility in simulated fluids and water; assay type: physicochemical; settings: for solubility at 24 h: thermodynamic from solid
Method: Solubility of Pattern A and melted solid was assessed in Fasted-State Simulated Gastric Fluid (FaSSGF), Fed-State Simulated Intestinal Fluid (FeSSIF), and Fasted-State Simulated Intestinal Fluid (FaSSIF), water, and 0.5% methyl cellulose+2% Tween80 in water. Five foil-covered 4 mL vials were prepared with 11-13 mg of as-received material (ID-1-1), 10 mm stir bars were included. Five foil-covered 4 mL vials containing between 11-13 mg of C9 were melted on a hot plate at 70° C. for 10 min and cooled to room temperature for 5 min, 10 mm stir bars were included.
Slurries were prepared with the as-received material ID-1-1 (Pattern A) and melted C9, each in 2.5 mL of simulated fluids (including 0.5% methyl cellulose+2% Tween80 in water), or water. The samples containing melted active pharmaceutical ingredient (API) were sonicated briefly, as they appeared to contain clumps of material. […] For solubility analysis 1 mL of each sample was pipetted into a syringe filter, the first 0.5 mL was filtered back into the source vial and the remaining 0.5 mL was filtered into HPLC vials with low volume inserts.
The response factor calculated with the calibration points was used to determine the concentrations of API in the simulated fluids and water. Calibration samples were prepared with as-received material (ID-1-1) in ACN. The concentrations and peak areas for each calibration point were plotted and a response factor calculated for solubility assessment.
Due to high pressures observed with the UPLC column, a different column and a modified method was employed for 24 h data points with 0.5% methyl cellulose+2% Tween80 in water, and 24 h in water (ID-30-4, ID-30-9 and ID-30-10). HPLC samples of ID-30-4 and 30-9 (those containing the methyl cellulose/Tween80 mixture) were diluted 10× with ACN. These samples plus a new set of injections of the calibration points were analyzed, a new response factor was determined, and the solubility of the remaining samples was calculated (response factor: 8084.7908; R2: 0.9989).

[5] = Humidification cycling by dynamic vapor sorption (DVS); assay type: physicochemical
Method: As-received material (ID 1-1) was subjected to humidification cycling by dynamic vapor sorption (DVS) instrument. The material underwent a 0.01% change in mass in the 15-75% relative humidity range, and a 0.08% change in mass over the full range of 2-95% relative humidity. Following humidification cycling, the solid was analyzed by XRPD.

T2 sequence (P10636 561-685 limits assumed): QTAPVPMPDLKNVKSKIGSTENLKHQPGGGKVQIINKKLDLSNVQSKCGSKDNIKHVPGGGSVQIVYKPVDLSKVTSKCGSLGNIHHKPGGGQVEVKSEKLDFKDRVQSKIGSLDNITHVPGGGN

inhibition of αSynuclein aggregation (normalized ThT fluorescence vs vehicle) [2]	reduction in Tau fibril content [3]	Solubility at 24 hours (mg/mL) ([4]; 0.5% MC + 2% Tween80 (aq), Phenomenex Luna Phenyl Hexyl HPLC column and modified method, listed as A (melted))	Conc. (mg/mL) at 30 min ([4]; 0.5% MC + 2% Tween80 (aq.), listed as A (melted)) [mg/mL]	solubility at 24 h ([4]; 0.5% methyl cellulose + 2% Tween80 in water, aqueous with cosolvent or surfactant or cyclodextrin, 0.5% MC + 2% Tween80 (aq), Phenomenex Luna Phenyl Hexyl HPLC column and modified method) [µg/mL]	Conc. (mg/mL) at 30 min ([4]; FaSSGF)	Solubility at 24 hours (mg/mL) ([4]; FaSSGF)	Conc. (mg/mL) at 30 min ([4]; FaSSIF, listed as A (melted)) [mg/mL]	solubility at 24 h ([4]; Fasted-State Simulated Intestinal Fluid (FaSSIF), fassif) [µg/mL]	Conc. (mg/mL) at 30 min ([4]; FeSSIF, listed as A (melted)) [mg/mL]	solubility at 24 h ([4]; Fed-State Simulated Intestinal Fluid (FeSSIF), fessif) [µg/mL]	Conc. (mg/mL) at 30 min ([4]; water)	Solubility at 24 hours (mg/mL) ([4]; water)	Solubility at 24 hours (mg/mL) ([4]; water, listed as A (melted))	DVS Change Mass (wt. %) ([5]; 2-95% RH)	DVS Change Mass (wt. %) ([5]; 15-75% RH)	Structure (SMILES)	inhibition of RSL3-induced αSynuclein aggregation [1]
not statistically significant	did not have a significant reduction	–	–	–	–	–	–	–	–	–	–	–	–	–	–	CCCCCCCC1=C(C)C(=O)C(C)=C(C)C1=O [Compound C7, 2,3,5-trimethyl-6-heptylcyclohexa-2,5-diene-1,4-dione]	did not demonstrate any inhibition
–	–	0.28# mg/mL	0.22	280	BDL	BDL	0.02	40 (≈ 145 µM)	0.25	200 (≈ 724 µM)	BDL	BDL	BDL#	0.073	0.044	CCCCCCCCCC1=C(C)C(=O)C(C)=C(C)C1=O [Melted Pattern A, 2,3,5-trimethyl-6-nonylcyclohexa-2,5-diene-1,4-dione]	–

Source: US20230339835A1, “2,3,5-TRIMETHYL-6-NONYLCYCLOHEXA-2,5-DIENE-1,4-DIONE FOR SUPPRESSING AND TREATING ALPHA-SYNUCLEINOPATHIES, TAUOPATHIES, AND OTHER DISORDERS” (PTC THERAPEUTICS, INC., priority 2018, published 2023)
